Measured values: the supplement of paper PMC5908809

Key:
Assay in all cases: relative IC50 (inflection point of fitted viability curve, relative to fitted max inhibition); higher = less sensitive
Conditions in all cases: 72 h
NK-92 (IL-2 2.5 ng/mL) = test system: NK-92 (IL-2 2.5 ng/mL)
Protocol: (§1)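 Drug sensitivity and resistance testing: 5 concentrations over a 10,000-fold range, 72 h at 37 °C, viability by CellTiter-Glo normalised to DMSO and benzethonium chloride controls. IC50 is the inflection point of a logistic fit (min fixed at 0, max fitted), so it is relative to the fitted maximal inhibition. Kept only where fitted max inhibition is at least 50%.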

[1] = test system: normal primary NK cells, pool 1 (3 donors), resting (IL-2 0 ng/mL)
Protocol: as §1

NKL (IL-2 2.5 ng/mL) = test system: NKL (IL-2 2.5 ng/mL)
Protocol: as §1

IMC-1 (IL-2 20 ng/mL) = test system: IMC-1 (IL-2 20 ng/mL)
Protocol: as §1

YT (IL-2 2.5 ng/mL) = test system: YT (IL-2 2.5 ng/mL)
Protocol: as §1

[2] = test system: normal primary NK cells, pool 1 (3 donors) (IL-2 2.5 ng/mL)
Protocol: as §1

[3] = test system: normal primary NK cells, pool 3 (3 donors) (IL-2 2.5 ng/mL)
Protocol: as §1

NK-YS (IL-2 2.5 ng/mL) = test system: NK-YS (IL-2 2.5 ng/mL)
Protocol: as §1

KAI3 (IL-2 2.5 ng/mL) = test system: KAI3 (IL-2 2.5 ng/mL)
Protocol: as §1

KHYG-1 (IL-2 2.5 ng/mL) = test system: KHYG-1 (IL-2 2.5 ng/mL)
Protocol: as §1

DERL-7 (IL-2 2.5 ng/mL) = test system: DERL-7 (IL-2 2.5 ng/mL)
Protocol: as §1

SNK-6 (IL-2 2.5 ng/mL) = test system: SNK-6 (IL-2 2.5 ng/mL)
Protocol: as §1

[4] = test system: normal primary NK cells, pool 2 (3 donors) (IL-2 2.5 ng/mL)
Protocol: as §1

SMILES	relative IC50 (NK-92 (IL-2 2.5 ng/mL))	relative IC50 [1]	relative IC50 (NKL (IL-2 2.5 ng/mL))	relative IC50 (IMC-1 (IL-2 20 ng/mL))	relative IC50 (YT (IL-2 2.5 ng/mL))	relative IC50 (NK-YS (IL-2 2.5 ng/mL))	relative IC50 (KAI3 (IL-2 2.5 ng/mL))	relative IC50 (KHYG-1 (IL-2 2.5 ng/mL))	relative IC50 (DERL-7 (IL-2 2.5 ng/mL))	other results
CC(C)(C)Cn1c(N)nc2ccc(-c3[nH]c(C(C)(C)C)nc3-c3ccc(F)cc3)nc21 [Ralimetinib]	1960 nM	4000 nM	1600 nM	> 10000 nM	2220 nM	–	–	–	–	relative IC50 [2]: 3570 nM
CS(=O)(=O)c1ccc(C2=C(c3ccccc3)C(=O)OC2)cc1 [Rofecoxib]	–	> 10000 nM	–	–	–	–	–	–	–	relative IC50 [3]: > 10000 nM
CNCc1ccc(-c2[nH]c3cc(F)cc4c3c2CCNC4=O)cc1 [Rucaparib]	–	–	438 nM	–	–	2000 nM	–	–	–	–
CC(C)N(CCCNC(=O)Nc1ccc(C(C)(C)C)cc1)C[C@H]1O[C@@H](n2cc(Br)c3c(N)ncnc32)[C@H](O)[C@@H]1O [SGC0946]	–	3660 nM	–	–	–	–	2540 nM	–	–	–
CN1CCN(CCOc2cc(OC3CCOCC3)c3c(Nc4c(Cl)ccc5c4OCO5)ncnc3c2)CC1 [Saracatinib]	1590 nM	1620 nM	–	3200 nM	1200 nM	2260 nM	2110 nM	3140 nM	1590 nM	–
CC[C@H](CO)Nc1nc(NCc2ccccc2)c2ncn(C(C)C)c2n1 [Seliciclib]	–	–	–	–	1850 nM	–	2380 nM	–	–	–
CO[C@H]1C[C@@H]2CC[C@@H](C)[C@@](O)(O2)C(=O)C(=O)N2CCCC[C@H]2C(=O)O[C@H]([C@H](C)C[C@@H]2CC[C@@H](O)[C@H](OC)C2)CC(=O)[C@H](C)/C=C(\C)[C@@H](O)[C@@H](OC)C(=O)[C@H](C)C[C@H](C)/C=C/C=C/C=C/1C [Sirolimus]	–	–	0.3 nM	–	–	1.01 nM	2.41 nM	6.55 nM	5 nM	relative IC50 (SNK-6 (IL-2 2.5 ng/mL)): 0.8 nM
CNC(=O)c1cc(Oc2ccc(NC(=O)Nc3ccc(Cl)c(C(F)(F)F)c3)cc2)ccn1 [Sorafenib]	–	–	> 1000 nM	> 1000 nM	–	–	–	–	–	relative IC50 [3]: > 1000 nM; relative IC50 [2]: > 1000 nM; relative IC50 [4]: > 1000 nM
Nc1nc(NC2CC2)cc(-c2cccc(Cl)c2Cl)n1 [TH588]	1550 nM	–	2180 nM	6380 nM	2120 nM	854 nM	1730 nM	2050 nM	7900 nM	relative IC50 (SNK-6 (IL-2 2.5 ng/mL)): 809 nM
Clc1ccccc1C(c1ccccc1)(c1ccccc1)n1cccn1 [TRAM-34]	–	> 1000 nM	–	–	–	–	–	–	–	–
